Experiments:
3T3-L1 [1] = assay: Cytotoxicity against mouse 3T3L1 cells up to 48 hrs by MTT assay; type: cell-based; conditions: 3t3-l1, 48 h
[2] = molecular target: T1, Pancreatic triacylglycerol lipase (Sus scrofa, UniProt P00591); assay: Inhibition of porcine pancreatic lipase using p-nitrophenyl butyrate as substrate pretreated for 15 mins followed by substrate addition measured after 15 mins by spectrophotometric method
T1 sequence (P00591 whole entry): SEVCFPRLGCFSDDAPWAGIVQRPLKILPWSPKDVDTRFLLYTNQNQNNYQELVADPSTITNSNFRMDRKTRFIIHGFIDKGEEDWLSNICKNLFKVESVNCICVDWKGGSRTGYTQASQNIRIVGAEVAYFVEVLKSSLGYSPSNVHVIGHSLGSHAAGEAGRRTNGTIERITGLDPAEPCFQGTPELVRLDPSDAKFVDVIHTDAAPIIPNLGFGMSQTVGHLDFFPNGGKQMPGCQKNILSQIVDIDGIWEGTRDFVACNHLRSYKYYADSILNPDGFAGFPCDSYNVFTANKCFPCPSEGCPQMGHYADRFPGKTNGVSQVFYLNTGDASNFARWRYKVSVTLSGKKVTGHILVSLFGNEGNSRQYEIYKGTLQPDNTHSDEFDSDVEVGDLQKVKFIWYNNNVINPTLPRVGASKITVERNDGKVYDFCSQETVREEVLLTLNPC

3T3-L1 [3] = assay: Anti-adipogenic activity in mouse 3T3L1 cells assessed as reduction in lipid accumulation at 25 uM administered for 8 days measured post last dose by Oil Red O staining based assay relative to control; type: functional; set-up: scale not given: the % may be the effect or the level left
3T3-L1 [4] = assay: Anti-adipogenic activity in mouse 3T3L1 cells assessed as reduction in lipid accumulation at 50 uM administered for 8 days measured post last dose by Oil Red O staining based assay relative to control; type: functional; set-up: scale not given: the % may be the effect or the level left
3T3-L1 [5] = assay: Anti-adipogenic activity in mouse 3T3L1 cells assessed as reduction in lipid accumulation at 100 uM administered for 8 days measured post last dose by Oil Red O staining based assay relative to control; type: functional; set-up: scale not given: the % may be the effect or the level left
[6] = molecular target: T1, Pancreatic triacylglycerol lipase; assay: Inhibition of porcine pancreatic lipase using p-nitrophenyl butyrate as substrate pretreated for 15 mins followed by substrate addition measured after 15 mins in presence of plasma by spectrophotometric method

Structure (SMILES)	Activity (3T3-L1 [1])	IC50 [2] [µM]	Activity (3T3-L1 [3]) [%]	Activity (3T3-L1 [4]) [%]	Activity (3T3-L1 [5]) [%]	IC50 [6] [µM]
O=C(CCc1ccc(O)cc1)c1c(O[C@@H]2O[C@H](CO)[C@@H](O)[C@H](O)[C@H]2O)cc(O)c(Cc2c(O)cc(O[C@@H]3O[C@H](CO)[C@@H](O)[C@H](O)[C@H]3O)c(C(=O)CCc3ccc(O)cc3)c2O)c1O	Non-Toxic	257				
O=C(CCc1ccc(O)cc1)c1c(O)cc(O)c(Cc2c(O)cc(O)c(C(=O)CCc3ccc(O)cc3)c2O)c1O	Non-Toxic	5.2	60.3	45.7	36.5	
O=C(CCc1ccc(O)cc1)c1c(O)cc(O)c(Cc2c(O)cc(O[C@@H]3O[C@H](CO)[C@@H](O)[C@H](O)[C@H]3O)c(C(=O)CCc3ccc(O)cc3)c2O)c1O	Non-Toxic	14.7				
O=C(CCc1ccc(O)cc1)c1c(O)cc(O)cc1O [PHLORETIN]	Non-Toxic	50.4				
O=C(CCc1ccc(O)cc1)c1c(O)cc(O)cc1O[C@@H]1O[C@H](CO)[C@@H](O)[C@H](O)[C@H]1O [PHLORIZIN]	Non-Toxic	> 300				68.3

Reference: ChEMBL document CHEMBL4043262, “Plasma-induced dimerization of phloridzin as a new class of anti-adipogenic agents” (Bioorg Med Chem Lett, 2017)
